In patent publication US20230035688A1, “METHOD FOR TREATING GASTRIC CANCER BY BLOCKING CCL28 CHEMOTACTIC PATHWAY” (SHANGHAI JIAO TONG UNIVERSITY, priority 2019, published 2023):

Experiments:
colon tumor cell lines = details: cited from earlier work
CCL28 protein = CCL28 protein expression in stomach of H. felis/MNU in situ gastric cancer mice (Western blotting, ELISA); assay type: in vivo, mouse; details: intraperitoneal injection; Western blotting (FIG. 3A) and ELISA (FIG. 3B)
Excerpt: The proteins in gastric cancer cell line and mouse gastric tissue were lysed with RIPA lysate (Thermo Scientific) added with protease inhibitor (Roche), and the protein concentration was detected using BCA Protein Assay Reagent (Thermo Scientific). The detected proteins were as follows: β-catenin (Abcam), CCL28 (R & D Systems), active β-catenin (Merck), GAPDH (Abcam) and β-tubulin (Abcam).
In order to establish gastric cancer mouse mode induced by Helicobacter felis (H. felis) and N-Methyl-N-nitrosourea (MNU), 8-week-old wild-type mice were fed by gavage with H. felis strain (ATCC 49179) three times a week, followed by given drinking water containing 240 ppm MNU every other week for a total of 12 weeks.

CCL28 promoter = CCL28 promoter luciferase reporter gene activity with β-catenin overexpression; assay type: cell-based, human; details: FIG. 2D
Excerpt: (§1) Wnt/β-catenin reporter plasmid M50 Super 8X TOPFlash (Addgene plasmid #12456) and mutant control M51 Super 8X FOPFlash (Addgene plasmid #12457) are gifts from Randall Moon. The promoter of the human CCL28 gene (2.8 kb, −2576/+205 relative to the transcriptional start site) was cloned into the firefly luciferase reporter gene construct pGL4. Mutations of potential TCF/LEF binding sites on the CCL28 promoter were introduced using the Hieff Mut™ Multisite Directed Mutagenesis Kit (Yeasen, Shanghai) to produce a mutant CCL28 promoter report construct (pGL4-CCL28.mut). The plasmids were transfected using a jetPRIME transfection reagent (Polybus Transfection). Transfection efficiency was standardized by co-transfection with a pRL-CMV reporter gene containing the Ranilla Luciferase gene. Firefly and Ranilla luciferase activities were measured using a Dual-Glo luciferase assay system (Promega).
(§2) In this Example, the correlation between CCL28 and β-catenin signaling pathway structure is analyzed in combination with bioinformatics, and then the relationship between the two is verified in the cell model. […] After using β-catenin/TCF, the transcriptional activity of CCL28 promoter was detected after shRNA knockdown of TCF/LEF transcription factor family members or overexpression of TCF/LEF members.

[1] = system: Wnt pathway reporter gene TOPflash; test: Wnt pathway reporter gene TOPflash luciferase activity with β-catenin overexpression; assay type: cell-based, human; details: FIG. 2D
Excerpt: as §1, §2

## Cc1cc(/C=C2\SC(=O)N(c3ccccc3)C2=O)c(C)n1-c1cccnc1 [iCRT14]
Colon tumor cell lines
  cell cycle arrest: G0/G1 arrest
CCL28 protein
  expression of CCL28 protein in the stomach: significantly reduces the expression of CCL28 protein in the stomach
CCL28 promoter
  up-regulation effect of β-catenin on CCL28 promoter activity: reduces the up-regulation effect of β-catenin on CCL28 promoter activity
[1]
  activity of Wnt pathway reporter gene TOPflash: reduced the activity of both reporter genes
